Results on one compound are retold here after publication PMC5432571 (Frontiers in Molecular Neuroscience, 2017).

Read-outs that look alike come from different tables or passages of the source.

The experiment has as its target T1, α2 GlyR (Homo sapiens, UniProt P23416).
T1 construct: expressed in transfected cells; host or cells: CHO cells
T1 sequence (P23416 28-452 isoform P23416-2 limits assumed): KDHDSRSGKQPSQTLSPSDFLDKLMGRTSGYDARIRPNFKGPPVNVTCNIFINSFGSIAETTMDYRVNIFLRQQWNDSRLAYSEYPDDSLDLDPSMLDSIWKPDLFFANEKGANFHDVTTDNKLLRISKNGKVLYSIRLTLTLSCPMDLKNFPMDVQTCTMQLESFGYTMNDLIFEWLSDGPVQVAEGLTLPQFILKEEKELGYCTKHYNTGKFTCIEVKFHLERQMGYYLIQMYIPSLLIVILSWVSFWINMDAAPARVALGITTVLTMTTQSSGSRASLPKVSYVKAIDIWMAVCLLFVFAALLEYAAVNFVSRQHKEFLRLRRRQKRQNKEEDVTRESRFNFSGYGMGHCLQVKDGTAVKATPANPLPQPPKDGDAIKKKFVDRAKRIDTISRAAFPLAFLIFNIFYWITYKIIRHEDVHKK
Description: Whole-cell patch-clamp of glycine-induced currents, α2 GlyR expressed in CHO cells. In kind it is cell-based. The conditions noted are these: for glycine-evoked current, % from the control: NFA 10 μM. As to the method:
The experiments were carried out on cultured Chinese hamster ovary (CHO) cells obtained from the American Type Tissue Culture Collection (ATCC, Molsheim, France) that were maintained in culture conditions as previously described (Mukhtarov et al., [2013]; Maleeva et al., [2015]).
One day before transfection, cells were plated on the cover slips (12 mm in diameter) and placed inside 35-mm cell culture dishes with 2 ml of medium. Transfection was performed using the Lipofectamine 3000 protocol (Life Technology, USA). To facilitate identification of transfected cells a green fluorescent protein (GFP) was added to the transfection mixture. For expression of functional heteromeric receptors, cells were simultaneously transfected with cDNAs of α and β subunits in the ratio 1:10. Three hours after the initial exposure of cells to the cDNAs the culture medium was replaced with that containing strychnine (1 μM), which prevents spontaneous activation of GlyRs. Electrophysiological recordings were performed in the fluorescent cells 24–72 h after transfection.
Whole-cell and outside-out recordings were performed at room temperature (20–25°C) using an EPC-9 amplifier (HEKA Elektronik, Germany). Cells were continuously superfused with external solution containing (mM): NaCl 140, CaCl2 2, KCl 2.8, MgCl2 4, HEPES 20, glucose 10; pH 7.4; 320–330 mOsm. Intracellular solution used for filling recording patch pipettes contained (mM): CsCl 140, CaCl2 6, MgCl2 2, MgATP 2, NaGTP 0.4, HEPES/CsOH 10, BAPTA (tetrapotassium salt) 2; pH 7.3; 290 mOsm. Two different protocols of solutions application were used in this study. […] A “ramp protocol” implies the gradual change of Vhold alternately from −80 to +80 mV and from +80 to −80 mV during 1 s, Vhold was fixed at −80 or +80 mV at the beginning and at the end of the ramp for 500 ms (Figure 2B).
Recording pipettes were pulled from borosilicate glass capillaries (Harvard Apparatus Ltd, USA) and had resistances of 5–10 MOhm. For the rapid replacement of the solutions, the fast application system was used. Three parallel rectangular tubes (100 × 100 μm) were positioned 40–50 μm above the recorded cell. The movement of the tubes was controlled by a computer-driven fast exchange system (SF 77A Perfusion Fast-Step, Warner, USA) allowing a 10–90% solution exchange in 3–5 ms, as measured by open electrode controls (1/10 external solution/water). Cells with low input resistance (<150 MOhm) and a rapid run-down (>30% with repetitive application) were excluded from analysis.
Electrophysiological recordings were performed using PatchMaster (HEKA Electronic, Germany) software.
The fractional electrical distance from the external side of the membrane (δ) at which bound NFA blocked the current was calculated using the Woodhull equation: IC50(V)=IC50(0) exp (−δFV/RT), where IC50(V) is IC50 at the given membrane potential, IC50(0) – at 0 mV, V – membrane potential and F, R, T have their usual meanings. δ was determined from a plot of IC50 values against membrane potential.

By IC50 is commonly meant the point on the concentration scale where inhibition reaches its midpoint. Usually inhibition stands for the drop in the measured response relative to a control, in per cent. A high value points to a strong effect. On to `O=C(O)c1cccnc1Nc1cccc(C(F)(F)F)c1` [NFA, Niflumic acid], for which the IC50 runs as follows: (+30 mV, glycine 30 μM, representative, read-out: NFA IC50 (representative IC50 curve)) 17 µM; (+30 mV, glycine 100 μM, representative, read-out: NFA IC50 (representative IC50 curve)) 12 µM; (+80 mV, glycine 30 μM, ramp protocol, mean ± SEM, read-out: IC50 of NFA) 9 ± 2 µM; (+80 mV, glycine 30 μM, representative, read-out: NFA IC50 (representative IC50 curve)) 12 µM; (+80 mV, glycine 100 μM, ramp protocol, mean ± SEM, read-out: IC50 of NFA) 9 ± 2 µM; (+80 mV, glycine 100 μM, representative, read-out: NFA IC50 (representative IC50 curve)) 7 µM. The IC50 by setting is: (read-out: IC50 of NFA) 133 ± 20 µM; (−30 mV, glycine 30 μM, representative, read-out: NFA IC50 (representative IC50 curve)) 75 µM; (−30 mV, glycine 100 μM, representative, read-out: NFA IC50 (representative IC50 curve)) 39 µM; (−80 mV, glycine 30 μM, ramp protocol, mean ± SEM, read-out: IC50 of NFA) 166 ± 28 µM; (−80 mV, glycine 30 μM, representative, read-out: NFA IC50 (representative IC50 curve)) 155 µM; (−80 mV, glycine 100 μM, representative, read-out: NFA IC50 (representative IC50 curve)) 100 µM. Besides, the inhibition at 10 µM (CHO) is around 50%. The “glycine-evoked current, % from the control” value (MP +80 mV) was 43 ± 5% and the “glycine-evoked current, % from the control” value (MP −80 mV) was 89 ± 4%. In addition, the “Hill coefficient (nH) of NFA interaction” value is, setting by setting: (membrane potential 30 mV, glycine 30 μM) 1.1 ± 0.14; (membrane potential 50 mV, glycine 30 μM) 1 ± 0.14; (membrane potential 70 mV, glycine 30 μM) 1 ± 0.13; (membrane potential 80 mV, glycine 30 μM) 0.97 ± 0.09; (membrane potential −50 mV, glycine 30 μM) 1.14 ± 0.12; (membrane potential −70 mV, glycine 30 μM) 1.04 ± 0.08. For the same compound, the “Hill coefficient (nH) of NFA interaction” value (membrane potential −80 mV, glycine 30 μM) is recorded as 1.05 ± 0.06. For the same compound, for the setting “overall statement in discussion”, the “Hill coefficient (nH) of NFA inhibitory action” value was around 1.
